# Results as given in article PMC11345769, “(SiFA)SeFe: A Hydrophilic Silicon-Based Fluoride Acceptor Enabling Versatile Peptidic Radiohybrid Tracers” (Journal of medicinal chemistry, 2024).
# Key:
# [1] = stability in human serum (radio-RP-HPLC); type: in vitro ADME; settings: 37 °C; for Intact tracer in human serum, 24 h: n=3; for remaining at 24 h, 25 MBq/mL: human, serum, n=3, read-out: Intact tracer in human serum, 24 h
# Description: Stability studies in human serum were also performed by incubating the ^18F-labeled ligands [^18F][^natGa]Ga-(SiFA)-SeFe-rhTATE1, [^18F][^natGa]Ga-(SiFA)SeFe-rhTATE2, [^18F][^natLu]Lu-(SiFA)SeFe-rhTATE3 and [^18F][^natLu]Lu-(SiFA)BA-rhTATE3 (for 1 h), as well as the ^177Lu-labeled ligands [^177Lu]Lu-(SiFA)SeFe-rhTATE3 and [^177Lu]Lu-(SiFA)BA-rhTATE3 for 1 and 24 h at 37 °C (Figure 3D). Afterward, the samples were analyzed for the intact tracer by radio-RP-HPLC (see SI, Table S4).
# 5 MBq of the respective ^18F-/^177Lu-labeled compound was added to 200 μL of human serum (from a healthy volunteer) and incubated at 37 °C for 1 h. After the addition of 50 vol % of cold ethanol and 150 vol % of cold MeCN, centrifugation was performed at 13.000 rpm for 20 min. The supernatant was decanted and centrifuged at 13.000 rpm for 10 min in a centrifuge tube with a 0.45 μm cellulose acetate filter. […] of the remaining filtrate was injected into RP-HPLC and the number of intact radioligand was quantified.
# [2] = stability of 18F-labeled model bioconjugates, lutetium labeling conditions; type: physicochemical; settings: buffer, pH 5.5
# Description: (§1) To a solution of 10 μL aqueous sodium acetate buffer (pH 5.5) and 80 μL 0.04 M HCl were added 10 μL of the respective ^18F-labeled (SiFA)SeFe-bioconjugate. The solution was kept at 90 °C and for each time point (0, 30, 60, 90, 120 min) 10 μL were analyzed via Radio-TLC. The half-life was calculated from the ratio between free fluorine-18 and labeled peptide.
# [3] = stability of 18F-labeled model bioconjugates, reverse isotopic exchange; type: physicochemical; settings: buffer, pH 6.5
# Description: To 10 μL of the respective ^18F-labeled (SiFA)SeFe-bioconjugate, a solution of 10 μL 10 mM NaF (pH = 6.5) and 80 μL H2O was added. The solution was kept at RT and for each time point (0, 30, 60, 90, 120 min) 10 μL was analyzed via Radio-TLC. The half-life was calculated from the ratio between free fluorine-18 and labeled peptide.
# [4] = stability of 18F-labeled model bioconjugates, physiological conditions; type: physicochemical; settings: buffer, pH 7.4
# Description: as §1, with “of 90” for “of 10”, “aqueous K2CO3” for “aqueous sodium acetate”, “(pH 7.4)” for “(pH 5.5) and 80 μL 0.04 M HCl”, “at 37” for “at 90”
# human serum albumin = molecular target: T1, human serum albumin (Homo sapiens, UniProt P02768); experiment: human serum albumin binding by HPAC; type: in vitro ADME; settings: non-radiolabeled compounds, n=1
# T1 construct: purchased Daicel, Tokio, Japan Chiralpak HSA column (50 × 3 mm, 5 μm, H13 h-2433)
# T1 sequence (P02768 25-609): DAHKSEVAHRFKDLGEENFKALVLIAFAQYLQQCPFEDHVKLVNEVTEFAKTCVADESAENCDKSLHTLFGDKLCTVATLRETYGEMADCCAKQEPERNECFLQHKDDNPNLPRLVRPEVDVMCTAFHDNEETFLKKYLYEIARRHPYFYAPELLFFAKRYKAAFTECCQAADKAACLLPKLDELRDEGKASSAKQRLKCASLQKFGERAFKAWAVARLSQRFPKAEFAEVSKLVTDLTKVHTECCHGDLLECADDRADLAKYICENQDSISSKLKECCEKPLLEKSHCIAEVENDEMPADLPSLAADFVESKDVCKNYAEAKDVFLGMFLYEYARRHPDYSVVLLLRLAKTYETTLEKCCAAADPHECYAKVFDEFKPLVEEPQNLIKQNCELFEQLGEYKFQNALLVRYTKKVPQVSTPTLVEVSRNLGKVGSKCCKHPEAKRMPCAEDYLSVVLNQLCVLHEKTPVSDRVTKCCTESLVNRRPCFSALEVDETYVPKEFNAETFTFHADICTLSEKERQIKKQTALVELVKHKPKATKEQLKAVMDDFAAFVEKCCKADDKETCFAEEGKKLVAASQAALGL
# Description: High performance affinity chromatography (HPAC) was used to determine representative values for HSA binding of the ligands and their references, since it can influence the distribution and pharmacokinetics of radiopharmaceuticals.[43],[44]
# HSA binding studies were performed according to a previously published procedure, using RP-HPLC and HSA which is solid-phase fixed on a Chiralpak HSA column (50 × 3 mm, 5 μm, H13 h-2433, Daicel, Tokio, Japan).[51] A flow rate of 0.5 mL/min at RT was used. A freshly prepared 50 mM aqueous solution of NH4OAc (pH 6.9) was used as mobile phase A, and isopropanol (HPLC grade, VWR, Germany) was used as mobile phase B. A gradient of 100% A (0 to 3 min) followed by 80% A (3 to 40 min) was used for the experiments. Before the analysis of all compounds, the column was calibrated with nine reference substances having HSA binding known from the literature in the range of 13 to 99%.[51],[52] All compounds, were prepared in a 1/1 mixture (v/v) of isopropanol and a 50 mM aqueous solution of NH4OAc (pH 6.9) at a final concentration of 0.5 mg/mL. Nonlinear regression was performed using OriginPro 2016G software (North-ampton, United States).
# [5] = lutetium labeling conditions, 18F-labeled, Radio-TLC, read-out: Half-life, pH 5.5, 90 °C (converted)
# [6] = reverse isotopic exchange, 18F-labeled, Radio-TLC, read-out: Half-life, pH 6.5, 1 mM aq. NaF, RT
# [7] = physiological conditions, 18F-labeled, Radio-TLC, read-out: Half-life, pH 7.4, 37 °C
smiles,measurement,setting,value
"C[C@@H](O)[C@H](NC(=O)[C@@H]1CSSC[C@H](NC(=O)[C@@H](Cc2ccccc2)NC(=O)COCCOCCNC(=O)[C@@H](CNC(=O)CN2CCN(CC(=O)O)CCN(CC(=O)O)CCN(CC(=O)O)CC2)NC(=O)COCCOCCNC(=O)c2cc(CN)cc([Si](F)(C(C)(C)C)C(C)(C)C)c2)C(=O)N[C@@H](Cc2ccc(O)cc2)C(=O)N[C@H](Cc2c[nH]c3ccccc23)C(=O)N[C@@H](CCCCN)C(=O)N[C@@H]([C@@H](C)O)C(=O)N1)C(=O)O [[177Lu]Lu-(SiFA)SeFe-rhTATE3, metal not drawn]","Intact tracer in human serum, 24 h",[1],94 ± 3.0%
same,"remaining at 24 h, 25 MBq/mL",[1],94%
"CC(C)(C)[Si](F)(c1cc(CNC(=O)[C@@H](N)CCC(=O)O)cc(C(=O)NCC(=O)N[C@@H](CCCCN)C(=O)O)c1)C(C)(C)C [3X1, (3-(((S)-2-amino-4-carboxybutanamido)methyl)-5-(di-tert-butylfluorosilyl)benzoyl)glycyl-L-lysine]",half-life,[2]; [5],40 ± 0.6 h
same,half-life,[3]; [6],34 ± 2.1 min
same,half-life,[4]; [7],57 ± 1.3 min
"C[C@@H](O)[C@H](NC(=O)[C@@H]1CSSC[C@H](NC(=O)[C@@H](Cc2ccccc2)NC(=O)COCCOCCNC(=O)[C@@H](CNC(=O)CN2CCN(CC(=O)O)CCN(CC(=O)O)CCN(CC(=O)O)CC2)NC(=O)COCCOCCNC(=O)c2ccc([Si](F)(C(C)(C)C)C(C)(C)C)cc2)C(=O)N[C@@H](Cc2ccc(O)cc2)C(=O)N[C@H](Cc2c[nH]c3ccccc23)C(=O)N[C@@H](CCCCN)C(=O)N[C@@H]([C@@H](C)O)C(=O)N1)C(=O)O [[177Lu]Lu-(SiFA)BA-rhTATE3, metal not drawn]","Intact tracer in human serum, 24 h",[1],60 ± 1.0%
same,"remaining at 24 h, 25 MBq/mL",[1],60%
"CC(C)(C)[Si](F)(c1cc(CNC(=O)[C@@H](N)CCC(=O)O)cc(C(=O)NCC(=O)N[C@@H](Cc2ccc(O)cc2)C(=O)O)c1)C(C)(C)C [3X3, (S)-4-amino-5-((3-((2-(((S)-1-carboxy-2-(4-hydroxyphenyl)-ethyl)amino)-2-oxoethyl)carbamoyl)-5-(di-tert-butylfluorosilyl)-benzyl)amino)-5-oxopentanoic acid]",half-life,[2]; [5],42 ± 7.8 h
same,half-life,[3]; [6],57 ± 1.6 min
same,half-life,[4]; [7],29 ± 0.8 min
"CC(=O)N[C@@H]1[C@@H](O)[C@H](O)[C@@H](CO)O[C@H]1NC(=O)C[C@H](NC(=O)CON=CCCC[N+](C)(C)Cc1ccc([Si](F)(C(C)(C)C)C(C)(C)C)cc1)C(=O)N[C@@H](CC(=O)O)C(=O)N[C@@H](CC(=O)O)C(=O)NCCOCCOCC(=O)N[C@H](Cc1ccccc1)C(=O)N[C@H]1CSSC[C@@H](C(=O)N[C@H](C(=O)O)[C@@H](C)O)NC(=O)[C@H]([C@@H](C)O)NC(=O)[C@H](CCCCN)NC(=O)[C@@H](Cc2c[nH]c3ccccc23)NC(=O)[C@H](Cc2ccc(O)cc2)NC1=O [SiFAlin-TATE, reference compound]",HSA binding (HPAC),human serum albumin,92%
"CC(C)(C)[Si](F)(c1cc(CNC(=O)[C@@H](N)CCCCN)cc(C(=O)NCC(=O)N[C@@H](CCCCN)C(=O)O)c1)C(C)(C)C [2X1, (3-(di-tert-butylfluorosilyl)-5-(((S)-2,6-diaminohexanamido)-methyl)benzoyl)glycyl-L-lysine]",half-life,[2]; [5],25 ± 5.5 h
same,half-life,[3]; [6],14 ± 0.8 min
same,half-life,[4]; [7],18 ± 2.1 min
"CC(C)(C)[Si](F)(c1cc(CN)cc(C(=O)NCC(=O)N[C@@H](CC(=O)O)C(=O)O)c1)C(C)(C)C [1X2, (3-(aminomethyl)-5-(di-tert-butylfluorosilyl)benzoyl)glycyl-L-as-partic acid]",half-life,[2],37 ± 11 h
same,half-life,[3],25 ± 6.1 min
same,half-life,[4],299 ± 12 min
"C[C@@H](O)[C@H](NC(=O)[C@@H]1CSSC[C@H](NC(=O)[C@@H](Cc2ccccc2)NC(=O)COCCOCCNC(=O)[C@@H](CNC(=O)CN2CCN(CC(=O)O)CCN(CC(=O)O)CCN(CC(=O)O)CC2)NC(=O)COCCOCCNC(=O)c2cc(CN)cc([Si](F)(C(C)(C)C)C(C)(C)C)c2)C(=O)N[C@@H](Cc2ccc(O)cc2)C(=O)N[C@H](Cc2c[nH]c3ccccc23)C(=O)N[C@@H](CCCCN)C(=O)N[C@@H]([C@@H](C)O)C(=O)N1)C(=O)O [[natLu]Lu-(SiFA)SeFe-rhTATE3, metal not drawn]",HSA binding (HPAC),human serum albumin,98%
same,HSA binding (HPAC),human serum albumin; listed as [^natLu]Lu-(SiFA)SeFe-rhTATE3,98−99%
"CC(C)(C)[Si](F)(c1cc(CNC(=O)[C@@H](N)CCC(=O)O)cc(C(=O)NCC(=O)N[C@@H](CC(=O)O)C(=O)O)c1)C(C)(C)C [3X2, (3-(((S)-2-amino-4-carboxybutanamido)methyl)-5-(di-tert-butylfluorosilyl)benzoyl)glycyl-L-aspartic acid]",half-life,[2]; [5],59 ± 5.2 h
same,half-life,[3]; [6],90 ± 3.6 min
same,half-life,[4]; [7],597 ± 43 min
"CC(C)(C)[Si](F)(c1cc(CN)cc(C(=O)NCC(=O)N[C@@H](Cc2ccc(O)cc2)C(=O)O)c1)C(C)(C)C [1X3, (3-(aminomethyl)-5-(di-tert-butylfluorosilyl)benzoyl)glycyl-L-tyrosine]",half-life,[2],43 ± 2.8 h
same,half-life,[3],27 ± 2.2 min
same,half-life,[4],14 ± 3 min
"CC(C)(C)[Si](F)(c1cc(CNC(=O)[C@@H](N)CCCCN)cc(C(=O)NCC(=O)N[C@@H](Cc2ccc(O)cc2)C(=O)O)c1)C(C)(C)C [2X3, (3-(di-tert-butylfluorosilyl)-5-(((S)-2,6-diaminohexanamido)-methyl)benzoyl)glycyl-L-tyrosine]",half-life,[2]; [5],48 ± 13 h
same,half-life,[3]; [6],20 ± 2.9 min
same,half-life,[4]; [7],21 ± 6 min
"CC(C)(C)[Si](F)(c1cc(CNC(=O)[C@@H](N)CCCCN)cc(C(=O)NCC(=O)N[C@@H](CC(=O)O)C(=O)O)c1)C(C)(C)C [2X2, (3-(di-tert-butylfluorosilyl)-5-(((S)-2,6-diaminohexanamido)-methyl)benzoyl)glycyl-L-aspartic acid]",half-life,[2]; [5],49 ± 7.1 h
same,half-life,[3]; [6],29 ± 0.8 min
same,half-life,[4]; [7],43 ± 1.3 min
"C[C@@H](O)[C@H](NC(=O)[C@@H]1CSSC[C@H](NC(=O)[C@@H](Cc2ccccc2)NC(=O)CN2CCN(CC(=O)O)CCN(CC(=O)NC[C@@H](NC(=O)c3cc(CN)cc([Si](F)(C(C)(C)C)C(C)(C)C)c3)C(=O)O)CCN(CC(=O)O)CC2)C(=O)N[C@@H](Cc2ccc(O)cc2)C(=O)N[C@H](Cc2c[nH]c3ccccc23)C(=O)N[C@@H](CCCCN)C(=O)N[C@@H]([C@@H](C)O)C(=O)N1)C(=O)O [[natGa]Ga-(SiFA)SeFe-rhTATE1, metal not drawn]",HSA binding (HPAC),human serum albumin,99%
same,HSA binding (HPAC),human serum albumin; listed as [^natGa]Ga-(SiFA)SeFe-rhTATE1,98−99%
"CC(C)(C)[Si](F)(c1cc(CN)cc(C(=O)NCC(=O)N[C@@H](CCCCN)C(=O)O)c1)C(C)(C)C [1X1, (3-(aminomethyl)-5-(di-tert-butylfluorosilyl)benzoyl)glycyl-L-lysine]",half-life,[2],38 ± 0.9 h
same,half-life,[3],10 ± 1.1 min
same,half-life,[4],27 ± 2.1 min
"C[C@@H](O)[C@H](NC(=O)[C@@H]1CSSC[C@H](NC(=O)[C@@H](Cc2ccccc2)NC(=O)CN2CCN(CC(=O)O)CCN(CC(=O)NC[C@@H](NC(=O)c3cc(CNC(=O)C[C@@H](N)C(=O)O)cc([Si](F)(C(C)(C)C)C(C)(C)C)c3)C(=O)O)CCN(CC(=O)O)CC2)C(=O)N[C@@H](Cc2ccc(O)cc2)C(=O)N[C@H](Cc2c[nH]c3ccccc23)C(=O)N[C@@H](CCCCN)C(=O)N[C@@H]([C@@H](C)O)C(=O)N1)C(=O)O [[natGa]Ga-(SiFA)SeFe-rhTATE2, metal not drawn]",HSA binding (HPAC),human serum albumin,99%
same,HSA binding (HPAC),human serum albumin; listed as [^natGa]Ga-(SiFA)SeFe-rhTATE2,98−99%
